Experimental data as given in ChEMBL document CHEMBL5247625, “Discovery and characterization of novel potent BCR-ABL degraders by conjugating allosteric inhibitor” (Eur J Med Chem, 2022).
pKd: −log10 of the molar value.

Assays:
[1] = biological target: Tyrosine-protein kinase ABL1 (Homo sapiens, UniProt P00519); experiment: Binding affinity to recombinant ABL (unknown origin)
[2] = biological target: Protein cereblon/Tyrosine-protein kinase ABL1/Breakpoint cluster region protein (Homo sapiens, UniProt P00519+P11274+Q96SW2); experiment: Protac activity at CRBN/BCR-ABL in human K562 cells assessed as increase in BCR-ABL degradation at 0.3 to 100 nM incubated for 16 hrs by Western blotting analysis relative to control; assay type: cell-based; details: dose 0.3-100 nM
Chain of Protein cereblon/Tyrosine-protein kinase ABL1/Breakpoint cluster region protein (P00519 whole entry, looked up): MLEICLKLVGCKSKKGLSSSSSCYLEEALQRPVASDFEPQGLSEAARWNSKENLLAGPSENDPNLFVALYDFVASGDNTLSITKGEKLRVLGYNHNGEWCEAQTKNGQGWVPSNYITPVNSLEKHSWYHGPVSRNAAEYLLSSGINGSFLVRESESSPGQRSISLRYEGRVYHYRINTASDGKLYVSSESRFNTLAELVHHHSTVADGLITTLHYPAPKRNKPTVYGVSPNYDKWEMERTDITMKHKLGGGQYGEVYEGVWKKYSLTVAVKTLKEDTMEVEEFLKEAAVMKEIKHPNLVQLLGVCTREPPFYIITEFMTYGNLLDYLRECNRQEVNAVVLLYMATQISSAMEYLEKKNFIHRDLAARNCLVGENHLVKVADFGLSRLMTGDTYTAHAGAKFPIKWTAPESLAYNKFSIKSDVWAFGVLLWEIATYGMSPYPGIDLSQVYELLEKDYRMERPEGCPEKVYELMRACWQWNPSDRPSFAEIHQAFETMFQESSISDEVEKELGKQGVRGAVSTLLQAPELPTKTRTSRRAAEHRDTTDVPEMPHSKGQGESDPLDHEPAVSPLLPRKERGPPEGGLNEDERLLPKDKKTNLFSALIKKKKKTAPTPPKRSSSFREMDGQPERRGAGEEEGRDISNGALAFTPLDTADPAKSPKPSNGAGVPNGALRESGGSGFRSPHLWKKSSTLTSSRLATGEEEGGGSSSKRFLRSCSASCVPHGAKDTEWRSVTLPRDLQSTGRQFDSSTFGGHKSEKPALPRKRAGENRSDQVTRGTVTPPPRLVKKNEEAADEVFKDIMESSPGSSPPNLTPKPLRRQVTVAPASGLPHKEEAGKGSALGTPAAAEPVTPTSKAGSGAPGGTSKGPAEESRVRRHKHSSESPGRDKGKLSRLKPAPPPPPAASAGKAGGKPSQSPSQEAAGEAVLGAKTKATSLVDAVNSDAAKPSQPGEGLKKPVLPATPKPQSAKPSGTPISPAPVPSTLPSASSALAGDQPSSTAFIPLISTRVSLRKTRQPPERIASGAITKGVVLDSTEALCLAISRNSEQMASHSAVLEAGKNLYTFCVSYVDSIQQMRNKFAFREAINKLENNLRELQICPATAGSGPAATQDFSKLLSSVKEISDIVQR
Chain of Protein cereblon/Tyrosine-protein kinase ABL1/Breakpoint cluster region protein (P11274 whole entry, looked up): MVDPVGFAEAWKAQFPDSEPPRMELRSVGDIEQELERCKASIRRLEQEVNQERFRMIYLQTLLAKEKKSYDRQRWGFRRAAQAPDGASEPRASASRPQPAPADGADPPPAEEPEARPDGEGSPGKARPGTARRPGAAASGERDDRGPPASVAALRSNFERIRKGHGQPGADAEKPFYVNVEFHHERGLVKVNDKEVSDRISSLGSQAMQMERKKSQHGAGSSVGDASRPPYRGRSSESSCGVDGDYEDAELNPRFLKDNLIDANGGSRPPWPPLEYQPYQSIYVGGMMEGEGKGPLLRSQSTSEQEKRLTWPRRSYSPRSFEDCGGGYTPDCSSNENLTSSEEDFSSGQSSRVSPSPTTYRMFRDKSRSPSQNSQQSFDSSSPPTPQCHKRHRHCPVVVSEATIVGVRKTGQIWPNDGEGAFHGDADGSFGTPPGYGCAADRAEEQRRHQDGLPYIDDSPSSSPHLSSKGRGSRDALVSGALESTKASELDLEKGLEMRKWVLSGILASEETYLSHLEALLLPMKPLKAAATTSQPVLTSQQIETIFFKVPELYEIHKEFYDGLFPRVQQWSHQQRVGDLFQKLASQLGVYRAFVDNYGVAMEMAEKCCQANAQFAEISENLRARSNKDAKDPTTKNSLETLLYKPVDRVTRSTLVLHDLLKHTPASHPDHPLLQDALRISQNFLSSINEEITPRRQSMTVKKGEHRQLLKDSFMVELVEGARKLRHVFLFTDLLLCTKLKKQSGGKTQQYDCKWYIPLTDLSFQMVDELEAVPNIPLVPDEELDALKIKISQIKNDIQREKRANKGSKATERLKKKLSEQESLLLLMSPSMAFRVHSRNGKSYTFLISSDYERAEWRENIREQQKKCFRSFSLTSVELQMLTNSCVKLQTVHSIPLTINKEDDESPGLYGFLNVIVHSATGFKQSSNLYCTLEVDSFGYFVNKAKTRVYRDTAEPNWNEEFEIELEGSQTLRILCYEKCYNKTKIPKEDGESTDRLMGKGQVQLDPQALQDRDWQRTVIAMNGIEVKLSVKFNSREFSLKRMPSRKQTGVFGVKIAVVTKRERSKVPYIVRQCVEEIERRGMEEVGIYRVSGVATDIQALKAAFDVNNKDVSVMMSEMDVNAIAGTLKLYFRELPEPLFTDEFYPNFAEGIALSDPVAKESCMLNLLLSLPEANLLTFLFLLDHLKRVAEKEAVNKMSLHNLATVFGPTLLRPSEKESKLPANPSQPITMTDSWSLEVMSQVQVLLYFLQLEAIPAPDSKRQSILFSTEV
Chain of Protein cereblon/Tyrosine-protein kinase ABL1/Breakpoint cluster region protein (Q96SW2 whole entry, looked up): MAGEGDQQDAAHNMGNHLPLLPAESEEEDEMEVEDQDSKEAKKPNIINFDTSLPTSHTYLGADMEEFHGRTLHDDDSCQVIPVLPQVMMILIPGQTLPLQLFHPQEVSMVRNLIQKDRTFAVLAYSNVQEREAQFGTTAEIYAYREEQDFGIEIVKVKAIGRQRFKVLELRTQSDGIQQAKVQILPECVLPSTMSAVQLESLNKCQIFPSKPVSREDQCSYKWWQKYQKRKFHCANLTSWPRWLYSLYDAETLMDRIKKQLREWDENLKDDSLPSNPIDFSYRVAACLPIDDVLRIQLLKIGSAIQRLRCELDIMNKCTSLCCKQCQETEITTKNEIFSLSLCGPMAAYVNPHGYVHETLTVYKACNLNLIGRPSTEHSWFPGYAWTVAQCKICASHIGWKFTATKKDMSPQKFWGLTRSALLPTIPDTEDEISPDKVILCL

Chain of Tyrosine-protein kinase ABL1 (P00519 whole entry): as the sequence (P00519 whole entry, looked up) above

In the case of O=C1CCC(N2Cc3c(SCCCCCCN4CCN(C5CCN(c6ncc(C(=O)Nc7ccc(OC(F)(F)Cl)cc7)cc6-c6ccn[nH]6)CC5)CC4)cccc3C2=O)C(=O)N1 (configuration not stated), the pKd [1] was 5.32 and the Emax [2] was 91.2%.
